In article PMC6265310, “Purification, Characterization and in vitro Evaluation of Polymyxin A From Paenibacillus dendritiformis: An Underexplored Member of the Polymyxin Family” (Frontiers in Microbiology, 2018):
In brackets after ≈: the same amount, converted by molar mass. Where a SMILES comes first, the peptide text is derived from it. Bridges are numbered along the chain shown (N, C = ends). [ ]: non-standard residue; d: D form. The star is where a group is joined. Heptanoyl(6-Me) = CC(C)CCCCC(=O)*; dDab = NCC[C@@H](N)C(=O)O; Dab = NCC[C@H](N)C(=O)O

Legend:
K. Pneumoniae 1428 = details: 1428
P. aeruginosa ATCC 27853 = test: Time-kill kinetics; type: cell-based; details: P. aeruginosa ATCC 27853, 2xMIC
E. coli 7932 = details: 7932
[1] = tested on: Pseudomonas aeruginosa ATCC 27853; details: ATCC 27853
P. aeruginosa PA4 = details: PA4
E. coli 13425 = details: 13425
K. Pneumoniae B8 = details: B8
K. Pneumoniae 827 = details: 827
P. aeruginosa GMCH06 = details: GMCH06
[2] = tested on: Bacillus subtilis ATCC 6633; details: ATCC 6633
E. coli 9062 = details: 9062
[3] = tested on: Klebsiella pneumoniae ATCC BAA1706; details: ATCC BAA1706
P. aeruginosa PA1 = details: PA1
K. Pneumoniae 1573 = details: 1573
P. aeruginosa PA6 = details: PA6
E. coli 3185 = details: 3185
E. coli 14363 = details: 14363
K. Pneumoniae GMCH11 = details: GMCH11
A. baumannii AB1 = details: AB1
E. coli ATCC 25922 = test: NPN uptake assay, outer membrane permeabilization; type: cell-based; details: E. coli ATCC 25922, 10 and 20 μg/ml, 1 h, compared with polymyxin B
[4] = tested on: Vibrio cholerae MTCC 3906
[5] = tested on: Klebsiella pneumoniae ATCC 29665; details: ATCC 29665
[6] = tested on: Vibrio parahaemolyticus ATCC17802
P. aeruginosa PA5 = details: PA5
[7] = tested on: Klebsiella pneumoniae ATCC 700603; details: ATCC 700603
E. coli 14084 = details: 14084
A. baumannii AB2 = details: AB2
[8] = tested on: Staphylococcus aureus ATCC 25923; details: ATCC 25923
[9] = tested on: Escherichia coli ATCC 35218; details: ATCC 35218
K. Pneumoniae GMCH04 = details: GMCH04
K. Pneumoniae GMCH 16 = details: GMCH 16
A. baumannii GMCH18 = details: GMCH18
E. coli 14504 = details: 14504
K. Pneumoniae GMCH13 = details: GMCH13
[10] = tested on: human leukemic monocyte cell line (THP-1 ATCC TIB-202); type: cell-based
Method: (§1) 3-(4,5-dimethylthiazol-2-yl)-2,5-diphenyltetrazolium bromide (MTT) assay was employed to examine the cytotoxicity against human leukemic monocyte cell line (THP-1 ATCC TIB-202) and human embryonic kidney cell line (HEK293 ATCC CRL-1573) as explained by [Kaur et al. (2017)]. Toxicity of both compounds was compared with polymyxin B and colistin at concentrations ranging from 62.5 to1000 μg/ml.

[11] = tested on: human embryonic kidney cell line (HEK293 ATCC CRL-1573); type: cell-based
Method: as §1

[12] = tested on: Escherichia coli ATCC 25922; details: ATCC 25922
E. coli 7534 = details: 7534
A. baumannii GMCH 14 = details: GMCH 14
E. coli 7210 = details: 7210
[13] = tested on: Enterococcus faecalis ATCC 51299; details: ATCC 51299
K. Pneumoniae GMCH10 = details: GMCH10
[14] = tested on: clinical MDR isolates (E. coli, K. pneumoniae, A. baumanii, P. aeruginosa); type: cell-based; details: in 25 of 31 clinical isolates
P. aeruginosa PA2 = details: PA2
A. baumannii GMCH05 = details: GMCH05
[15] = tested on: Klebsiella pneumoniae ATCC- BAA 2146; details: BAA 2146
P. aeruginosa PA3 = details: PA3
[16] = tested on: Acinetobacter baumannii ATCC 19606; details: ATCC 19606
K. Pneumoniae GMCH12 = details: GMCH12

## CC(C)CCCCC(=O)N[C@@H](CCN)C(=O)N[C@H](C(=O)N[C@H](CCN)C(=O)N[C@H]1CCNC(=O)[C@H]([C@@H](C)O)NC(=O)[C@H](CCN)NC(=O)[C@H](CCN)NC(=O)[C@H]([C@@H](C)O)NC(=O)[C@@H](CC(C)C)NC(=O)[C@H](CCN)NC1=O)[C@@H](C)O [P1, polymyxin A2] ({Heptanoyl(6-Me)}-[Dab]T[dDab][Dab][Dab][dL]T[Dab][Dab]T; lactam 4-C)
K. Pneumoniae 1428
  MIC: 1 µg/mL (≈ 0.875 µM)
P. aeruginosa ATCC 27853
  time to kill: 4 h
E. coli 7932
  MIC: 0.25 µg/mL (≈ 0.219 µM)
[1]
  MIC: 0.5 µg/mL (≈ 0.437 µM)
P. aeruginosa PA4
  MIC: 1 µg/mL (≈ 0.875 µM)
E. coli 13425
  MIC: 0.25 µg/mL (≈ 0.219 µM)
K. Pneumoniae B8
  MIC: 0.5 µg/mL (≈ 0.437 µM)
K. Pneumoniae 827
  MIC: 0.5 µg/mL (≈ 0.437 µM)
P. aeruginosa GMCH06
  MIC: 0.5 µg/mL (≈ 0.437 µM)
[2]
  MIC: 16 µg/mL (≈ 14 µM)
E. coli 9062
  MIC: 0.25 µg/mL (≈ 0.219 µM)
[3]
  MIC: 0.5 µg/mL (≈ 0.437 µM)
P. aeruginosa PA1
  MIC: 1 µg/mL (≈ 0.875 µM)
K. Pneumoniae 1573
  MIC: 0.5 µg/mL (≈ 0.437 µM)
P. aeruginosa PA6
  MIC: 1 µg/mL (≈ 0.875 µM)
E. coli 3185
  MIC: 0.25 µg/mL (≈ 0.219 µM)
E. coli 14363
  MIC: 0.25 µg/mL (≈ 0.219 µM)
K. Pneumoniae GMCH11
  MIC: 1 µg/mL (≈ 0.875 µM)
A. baumannii AB1
  MIC: 0.5 µg/mL (≈ 0.437 µM)
E. coli ATCC 25922
  NPN uptake (fluorescence intensity): slightly higher NPN uptake
[4]
  MIC: >16 µg/mL
[5]
  MIC: 0.5 µg/mL (≈ 0.437 µM)
[6]
  MIC: 1 µg/mL (≈ 0.875 µM)
P. aeruginosa PA5
  MIC: 1 µg/mL (≈ 0.875 µM)
[7]
  MIC: 1 µg/mL (≈ 0.875 µM)
E. coli 14084
  MIC: 0.25 µg/mL (≈ 0.219 µM)
A. baumannii AB2
  MIC: 1 µg/mL (≈ 0.875 µM)
[8]
  MIC: >16 µg/mL
[9]
  MIC: 0.25 µg/mL (≈ 0.219 µM)
K. Pneumoniae GMCH04
  MIC: 0.25 µg/mL (≈ 0.219 µM)
K. Pneumoniae GMCH 16
  MIC: 0.5 µg/mL (≈ 0.437 µM)
A. baumannii GMCH18
  MIC: 0.25 µg/mL (≈ 0.219 µM)
E. coli 14504
  MIC: 0.25 µg/mL (≈ 0.219 µM)
K. Pneumoniae GMCH13
  MIC: 0.5 µg/mL (≈ 0.437 µM)
[10]
  IC50: approximately 1000 μg/ml
[11]
  IC50: > 1000 µg/mL
[12]
  MIC: 1 µg/mL (≈ 0.875 µM)
E. coli 7534
  MIC: 0.25 µg/mL (≈ 0.219 µM)
A. baumannii GMCH 14
  MIC: 0.5 µg/mL (≈ 0.437 µM)
E. coli 7210
  MIC: 0.25 µg/mL (≈ 0.219 µM)
[13]
  MIC: >16 µg/mL
K. Pneumoniae GMCH10
  MIC: 1 µg/mL (≈ 0.875 µM)
[14]
  fold less MIC than the other polymyxins: 2–4 fold
P. aeruginosa PA2
  MIC: 1 µg/mL (≈ 0.875 µM)
A. baumannii GMCH05
  MIC: 1 µg/mL (≈ 0.875 µM)
[15]
  MIC: 0.5 µg/mL (≈ 0.437 µM)
P. aeruginosa PA3
  MIC: 1 µg/mL (≈ 0.875 µM)
[16]
  MIC: 0.5 µg/mL (≈ 0.437 µM)
K. Pneumoniae GMCH12
  MIC: 0.5 µg/mL (≈ 0.437 µM)
